Experimental data: patent US20230114728A1 (Venatorx Pharmaceuticals, Inc., priority 2019, published 2023)
≈ marks a conversion by molar mass, not a printed value.

Assays:
E. coli K12 PBP3 = target: T1, E. coli K12 PBP3 (Escherichia coli, UniProt P0AD68); experiment: biochemical; assay type: binding
T1 construct: made in house
Summary of the method: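 A. baumannii PBP2 (2.5 μM) and PBP3 (0.2 μM) were run in 25 mM Tris pH 8.0 buffer with Tween 20; E. coli PBP3 (1.5 μM) and N. gonorrhoeae PBP2 ([…]) in 50 mM Hepes pH 8.0 buffer.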

P. aeruginosa PBP3 = target: T2, P. aeruginosa PBP3 (Pseudomonas aeruginosa, UniProt G3XD46); experiment: Bocillin-FL fluorescence polarization competition binding assay, P. aeruginosa PBP3; details: fluorescence polarization competition binding assay using Bocillin-FL
T2 construct: made in house
T2 sequence (G3XD46 whole entry): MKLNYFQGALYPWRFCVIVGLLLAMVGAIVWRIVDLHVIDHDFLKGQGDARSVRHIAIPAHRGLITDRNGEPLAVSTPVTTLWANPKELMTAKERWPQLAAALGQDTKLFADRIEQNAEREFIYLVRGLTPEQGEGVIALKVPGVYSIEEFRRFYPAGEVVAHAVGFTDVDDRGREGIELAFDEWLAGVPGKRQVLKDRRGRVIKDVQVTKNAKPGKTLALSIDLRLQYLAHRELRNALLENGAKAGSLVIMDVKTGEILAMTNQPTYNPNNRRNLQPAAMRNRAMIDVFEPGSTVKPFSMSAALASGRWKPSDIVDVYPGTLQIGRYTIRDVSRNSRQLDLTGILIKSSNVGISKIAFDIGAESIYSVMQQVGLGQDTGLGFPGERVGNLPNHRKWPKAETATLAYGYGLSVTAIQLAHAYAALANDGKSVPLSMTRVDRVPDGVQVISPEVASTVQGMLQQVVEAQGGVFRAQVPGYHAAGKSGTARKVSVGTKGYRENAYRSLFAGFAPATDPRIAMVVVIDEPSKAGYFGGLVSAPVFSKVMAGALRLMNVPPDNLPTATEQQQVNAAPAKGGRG
Summary of the method: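 Inhibitor competition with Bocillin-FL for P. aeruginosa PBP3 was followed by fluorescence polarization on a Cytation3 (BioTek) reader, using g-factor 0.96, 490 nm excitation and 520 nm emission. The enzyme was at 0.75 μM and the probe at 0.1 μM in Hepes/NaCl/glycerol buffer, 80 μl per well. FP was recorded immediately after probe addition for up to 60 minutes. Potency was expressed as EC50, the concentration that reduces bound probe by 50%.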

[1] = system: N. gonorrhoeae ATCC 49226; experiment: Liquid broth MIC in Fastidious broth; assay type: cell-based; details: Neisseria gonorrhoeae, ATCC49226; N. gonorrhoeae strain ATCC 49226; Fastidious broth; read-out: Minimum Inhibitory Concentration, N. gonorrhoeae ATCC 49226
Summary of the method: (§1)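 Colonies were swabbed from chocolate agar after 24 h growth and standardised by optical density at 600 nm. Compounds were serially diluted twofold in Fastidious broth, and bacteria added to give 5×10^5 CFU/mL. After about 24 h at 36 °C in 5% CO2, the lowest concentration allowing under 10% growth was taken as MIC.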

N. gonorrhoeae FA1090 = experiment: Liquid broth MIC in Fastidious broth; assay type: cell-based; details: Neisseria gonorrhoeae; N. gonorrhoeae strain FA1090; Fastidious broth; read-out: Minimum Inhibitory Concentration, N. gonorrhoeae FA1090
Summary of the method: as §1

N. gonorrhoeae H041 = experiment: Liquid broth MIC in Fastidious broth; assay type: cell-based; details: Neisseria gonorrhoeae, H041, read-out: Minimum Inhibitory Concentration, N. gonorrhoeae H041
Summary of the method: (§2)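 Broth microdilution against gonococcal strains expressing mosaic PBP2, starting inoculum 5×10^5 CFU/mL in Fastidious broth. Incubation runs ~24 h at 36 °C under 5% CO2, with MIC scored visually at <10% of full growth.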

N. gonorrhoeae WHO G = experiment: Liquid broth MIC in Fastidious broth; assay type: cell-based; details: Neisseria gonorrhoeae; N. gonorrhoeae strain WHO G; Fastidious broth; read-out: Minimum Inhibitory Concentration, N. gonorrhoeae WHO G
Summary of the method: as §1

N. gonorrhoeae WHO K = experiment: Liquid broth MIC in Fastidious broth; assay type: cell-based; details: Neisseria gonorrhoeae, read-out: Minimum Inhibitory Concentration, N. gonorrhoeae WHO K
Summary of the method: as §2

N. gonorrhoeae WHO L = experiment: Liquid broth MIC in Fastidious broth; assay type: cell-based; details: Neisseria gonorrhoeae; N. gonorrhoeae strain WHO L; Fastidious broth; read-out: Minimum Inhibitory Concentration, N. gonorrhoeae WHO L
Summary of the method: as §1

N. gonorrhoeae WHO Q = experiment: Liquid broth MIC in Fastidious broth; assay type: cell-based; details: Neisseria gonorrhoeae, read-out: Minimum Inhibitory Concentration, N. gonorrhoeae WHO Q
Summary of the method: as §2

N. gonorrhoeae WHO Z = experiment: Liquid broth MIC in Fastidious broth; assay type: cell-based; details: Neisseria gonorrhoeae, read-out: Minimum Inhibitory Concentration, N. gonorrhoeae WHO Z
Summary of the method: as §2

T1 sequence (P0AD68 1-577): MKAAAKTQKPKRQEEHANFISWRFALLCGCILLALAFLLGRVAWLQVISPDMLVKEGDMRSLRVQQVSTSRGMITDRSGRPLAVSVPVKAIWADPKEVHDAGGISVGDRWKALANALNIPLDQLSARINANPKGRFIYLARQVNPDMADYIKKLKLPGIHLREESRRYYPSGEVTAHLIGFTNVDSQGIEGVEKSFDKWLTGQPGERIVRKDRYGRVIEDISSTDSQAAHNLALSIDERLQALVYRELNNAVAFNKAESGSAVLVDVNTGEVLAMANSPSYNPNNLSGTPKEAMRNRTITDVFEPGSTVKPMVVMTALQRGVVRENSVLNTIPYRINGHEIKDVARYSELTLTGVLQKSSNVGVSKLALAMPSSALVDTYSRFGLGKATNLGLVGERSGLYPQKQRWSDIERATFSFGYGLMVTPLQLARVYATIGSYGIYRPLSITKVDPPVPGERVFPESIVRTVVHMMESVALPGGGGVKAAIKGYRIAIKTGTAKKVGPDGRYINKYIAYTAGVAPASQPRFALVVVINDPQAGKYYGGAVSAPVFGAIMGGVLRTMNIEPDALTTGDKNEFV

**Q.** CCN1CCN(C(=O)NC(C(=O)N[C@H]2Cc3cccc(C(=O)O)c3OB2O)c2c(F)cc(NC(C)=O)cc2F)C(=O)C1=O (stereo partly drawn) [Example 188, (3R)-3-(2-(4-acetamido-2,6-difluorophenyl)-2-(4-ethyl-2,3-dioxopiperazine-1-carboxamido)acetamido)-2-hydroxy-3,4-dihydro-2H-benzo[e][1,2]oxaborinine-8-carboxylic acid] was tested. Which EC50 (E. coli K12 PBP3) did it give?
**A.** < 30 µM

**Q.** What about the “P. aeruginosa PBP3 Potency” value (P. aeruginosa PBP3) of the same compound?
**A.** D (D represents a potency <10 μM)

**Q.** What about the MIC [1] of the same compound?
**A.** 4 to 8 µg/mL (≈ 6.65 to 13.3 µM)

**Q.** What about the MIC (N. gonorrhoeae FA1090) of the same compound?
**A.** 0.25 to 0.5 µg/mL (≈ 0.416 to 0.831 µM)

**Q.** And the MIC (N. gonorrhoeae H041)?
**A.** > 64 µg/mL

**Q.** What about the MIC (N. gonorrhoeae WHO G) of the same compound?
**A.** 4 to 8 µg/mL (≈ 6.65 to 13.3 µM)

**Q.** What about the MIC (N. gonorrhoeae WHO K) of the same compound?
**A.** > 64 µg/mL

**Q.** What about the MIC (N. gonorrhoeae WHO L) of the same compound?
**A.** > 64 µg/mL

**Q.** And the MIC (N. gonorrhoeae WHO Q)?
**A.** 16 to 32 µg/mL (≈ 26.6 to 53.2 µM)

**Q.** What about the MIC (N. gonorrhoeae WHO Z) of the same compound?
**A.** 16 to 32 µg/mL (≈ 26.6 to 53.2 µM)

**Q.** For NCCCN1CCN(C(=O)N[C@@H](C(=O)N[C@H]2Cc3cc(Cl)c(F)c(C(=O)O)c3OB2O)c2c(F)cc(O)c(O)c2Cl)C(=O)C1=O [Example 190, (R)-3-((R)-2-(4-(3-aminopropyl)-2,3-dioxopiperazine-1-carboxamido)-2-(2-chloro-6-fluoro-3,4-dihydroxyphenyl)acetamido)-6-chloro-7-fluoro-2-hydroxy-3,4-dihydro-2H-benzo[e][1,2]oxaborinine-8-carboxylic acid], which EC50 (E. coli K12 PBP3) is on record?
**A.** < 30 µM

**Q.** What about the “P. aeruginosa PBP3 Potency” value (P. aeruginosa PBP3) of the same compound?
**A.** D (D represents a potency <10 μM)

**Q.** And the MIC [1]?
**A.** > 64 µg/mL

**Q.** What about the MIC (N. gonorrhoeae FA1090) of the same compound?
**A.** 16 to 32 µg/mL (≈ 23.7 to 47.5 µM)

**Q.** What about the MIC (N. gonorrhoeae H041) of the same compound?
**A.** > 64 µg/mL

**Q.** What about the MIC (N. gonorrhoeae WHO G) of the same compound?
**A.** > 64 µg/mL

**Q.** And the MIC (N. gonorrhoeae WHO K)?
**A.** > 64 µg/mL

**Q.** And the MIC (N. gonorrhoeae WHO L)?
**A.** > 64 µg/mL

**Q.** What about the MIC (N. gonorrhoeae WHO Q) of the same compound?
**A.** > 64 µg/mL

**Q.** What about the MIC (N. gonorrhoeae WHO Z) of the same compound?
**A.** > 64 µg/mL

**Q.** How did the EC50 (E. coli K12 PBP3) turn out when CCN1CCN(C(=O)N[C@@H](C(=O)N[C@H]2Cc3cc(Cl)c(F)c(C(=O)O)c3OB2O)c2c(F)cc(O)c(O)c2Cl)C(=O)C1=O [Example 191, (R)-6-chloro-3-((R)-2-(2-chloro-6-fluoro-3,4-dihydroxyphenyl)-2-(4-ethyl-2,3-dioxopiperazine-1-carboxamido)acetamido)-7-fluoro-2-hydroxy-3,4-dihydro-2H-benzo[e][1,2]oxaborinine-8-carboxylic acid] was run?
**A.** < 30 µM

**Q.** What about the “P. aeruginosa PBP3 Potency” value (P. aeruginosa PBP3) of the same compound?
**A.** D (D represents a potency <10 μM)

**Q.** And the MIC [1]?
**A.** > 64 µg/mL

**Q.** What about the MIC (N. gonorrhoeae FA1090) of the same compound?
**A.** 16 to 32 µg/mL (≈ 24.8 to 49.6 µM)

**Q.** What about the MIC (N. gonorrhoeae H041) of the same compound?
**A.** > 64 µg/mL

**Q.** And the MIC (N. gonorrhoeae WHO G)?
**A.** > 64 µg/mL

**Q.** And the MIC (N. gonorrhoeae WHO K)?
**A.** > 64 µg/mL

**Q.** And the MIC (N. gonorrhoeae WHO L)?
**A.** > 64 µg/mL

**Q.** And the MIC (N. gonorrhoeae WHO Q)?
**A.** > 64 µg/mL

**Q.** What about the MIC (N. gonorrhoeae WHO Z) of the same compound?
**A.** > 64 µg/mL

**Q.** CCN1CCN(C(=O)NC(C(=O)N[C@H]2Cc3cccc(C(=O)O)c3OB2O)c2cc(C#N)c(OC)cc2F)C(=O)C1=O (stereo partly drawn) [Example 192, (3R)-3-(2-(5-cyano-2-fluoro-4-methoxyphenyl)-2-(4-ethyl-2,3-dioxopiperazine-1-carboxamido)acetamido)-2-hydroxy-3,4-dihydro-2H-benzo[e][1,2]oxaborinine-8-carboxylic acid] was tested. Which EC50 (E. coli K12 PBP3) did it give?
**A.** 30 to 500 µM

**Q.** And the “P. aeruginosa PBP3 Potency” value (P. aeruginosa PBP3)?
**A.** D (D represents a potency <10 μM)

**Q.** And the MIC [1]?
**A.** > 64 µg/mL

**Q.** And the MIC (N. gonorrhoeae FA1090)?
**A.** 4 to 8 µg/mL (≈ 6.88 to 13.8 µM)

**Q.** And the MIC (N. gonorrhoeae H041)?
**A.** > 64 µg/mL

**Q.** And the MIC (N. gonorrhoeae WHO G)?
**A.** > 64 µg/mL

**Q.** And the MIC (N. gonorrhoeae WHO K)?
**A.** > 64 µg/mL

**Q.** And the MIC (N. gonorrhoeae WHO L)?
**A.** > 64 µg/mL

**Q.** And the MIC (N. gonorrhoeae WHO Q)?
**A.** > 64 µg/mL

**Q.** What about the MIC (N. gonorrhoeae WHO Z) of the same compound?
**A.** > 64 µg/mL

**Q.** With O=C(O)c1cccc2c1OB(O)[C@@H](NC(=O)C(NC(=O)N1CCN(CC3CNC3)C(=O)C1=O)c1c(F)cc(O)cc1F)C2 (stereo partly drawn) [Example 193, (3R)-3-(2-(4-(azetidin-3-ylmethyl)-2,3-dioxopiperazine-1-carboxamido)-2-(2,6-difluoro-4-hydroxyphenyl)acetamido)-2-hydroxy-3,4-dihydro-2H-benzo[e][1,2]oxaborinine-8-carboxylic acid] as the compound, how does the EC50 (E. coli K12 PBP3) read?
**A.** < 30 µM

**Q.** What about the “P. aeruginosa PBP3 Potency” value (P. aeruginosa PBP3) of the same compound?
**A.** D (D represents a potency <10 μM)

**Q.** What about the MIC [1] of the same compound?
**A.** > 64 µg/mL

**Q.** And the MIC (N. gonorrhoeae FA1090)?
**A.** 1 to 2 µg/mL (≈ 1.66 to 3.33 µM)

**Q.** And the MIC (N. gonorrhoeae H041)?
**A.** > 64 µg/mL

**Q.** What about the MIC (N. gonorrhoeae WHO G) of the same compound?
**A.** 16 to 32 µg/mL (≈ 26.6 to 53.2 µM)

**Q.** What about the MIC (N. gonorrhoeae WHO K) of the same compound?
**A.** > 64 µg/mL

**Q.** What about the MIC (N. gonorrhoeae WHO L) of the same compound?
**A.** > 64 µg/mL

**Q.** What about the MIC (N. gonorrhoeae WHO Q) of the same compound?
**A.** > 64 µg/mL

**Q.** What about the MIC (N. gonorrhoeae WHO Z) of the same compound?
**A.** > 64 µg/mL
